These are literature values, as cited in patent EP4659594A1, “ORAL PRODUCTS CONTAINING MODIFIED NICOTINE-POLYMER COMPLEX” (Nicoventures Trading Limited, priority 2024, dated 2025).

What is called logP is a log measure of how a compound divides between an organic and an aqueous phase.

For this series the following is noted: octanol/water; source of the values not stated.

For `CCCCCCCS(=O)(=O)O` [1-heptanesulfonic acid], the log partition coefficient (logP) is listed as 2.0.
`CCCCCCCCCCCC(=O)O` [dodecanoic acid]: the logP is listed as 4.6.
On to `CC(C)[C@@H]1CC[C@@H](C)C[C@H]1OC(=O)CCC(=O)O` [monomenthyl succinate], for which the logP is listed as 3.
For ethyl benzoic acid, the lipophilicity (logP) was 2.9.
With isopropyl benzoic acid, the log partition coefficient (logP) was 3.5.
